The results in this text go back to ChEMBL document CHEMBL1201862, “PubChem BioAssay data set” (2004).

Some test systems named below: A498; BT-549; COLO 205; EKVX; HCT-116; HOP-92; HT-29; IGROV-1; K562; LOX IMVI; MDA-MB-231; NCI-H522; OVCAR-4; PC-3; RPMI-8226; SK-OV-3; SW-620; UACC-257; HCC 2998.
Holding throughout (experiment): growth of human tumour cells (NCI), 48 h

Each structure is given as a SMILES string.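 Test compounds were applied to cells in 96-well plates for 48 hours at 5 doses. At the GI50, growth is halved.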 Calls of active or inactive are those of the source. Rule as the data show it: active = GI50 up to about 1.1 µM and inactive = higher.

As for `O=C(O)c1nc2nc(Cl)c(Cl)nc2[nH]1`, the GI50 in the test on A498, in the test on BT-549, with COLO 205, with EKVX, in the test on HCT-116 and in the test on HOP-92 was > 100 µM (inactive) in each case. The GI50 with HT-29, in the test on IGROV-1, in the test with K562, in the test on LOX IMVI, with MDA-MB-231 and in the test on NCI-H522 was > 100 µM (inactive) throughout. Further, the GI50 in the test with OVCAR-4, in the test on PC-3, in the test on RPMI-8226, in the test with SK-OV-3, in the test with SW-620 and with UACC-257 was > 100 µM (inactive) each time.
With `Cc1sc(NC=C2C(=O)CC(C)(C)CC2=O)nc1-c1ccccc1`, the GI50 in the test on BT-549, in the test on COLO 205, in the test with EKVX, in the test on HCC 2998, in the test on HCT-116 and in the test with HOP-92 was > 100 µM (inactive) in each case. The GI50 in the test on HT-29 was > 100 µM (inactive); in the test on IGROV-1, > 100 µM (inactive); with K562, > 100 µM (inactive); in the test on LOX IMVI it was > 100 µM (inactive); with MDA-MB-231, > 100 µM (inactive); with NCI-H522 it was 80.5 µM (inactive). The GI50 in the test with OVCAR-4, in the test with PC-3, with RPMI-8226, with SK-OV-3, in the test with SW-620 and in the test with UACC-257 was > 100 µM (inactive) each time.
Turning to `CNC(=S)NNc1ncnc2c1c(-c1ccc(Cl)cc1)cn2-c1ccc(C)cc1`, the GI50 in the test with A498 was 20.8 µM (inactive); with BT-549, 14.2 µM (inactive); with COLO 205, 14.3 µM (inactive); in the test with EKVX, 13.8 µM (inactive); with HCT-116 it was 4.57 µM (inactive); in the test on HOP-92, 15.5 µM (inactive). The GI50 with HT-29 is 14.9 µM (inactive); in the test with IGROV-1 it was 10.4 µM (inactive); in the test on K562, 3.2 µM (inactive); with LOX IMVI it was 9.38 µM (inactive); in the test with MDA-MB-231 it was 7.8 µM (inactive); in the test with NCI-H522 it was 7.76 µM (inactive). The GI50 was 15.6 µM (inactive) with OVCAR-4; 5.45 µM (inactive) in the test on PC-3; 3.13 µM (inactive) in the test on RPMI-8226; 15 µM (inactive) in the test with SK-OV-3; 6.67 µM (inactive) with SW-620; 12.9 µM (inactive) in the test on UACC-257.
For the compound `CSC(=S)NN=C1CCCCC1`, the GI50 is > 100 µM (inactive) in the test with A498; 45.2 µM (inactive) in the test on BT-549; 47.1 µM (inactive) in the test with COLO 205; 22.8 µM (inactive) with EKVX; 27.2 µM (inactive) in the test with HCT-116; > 100 µM (inactive) with HOP-92. Also, the GI50 in the test on HT-29 is 47.6 µM (inactive); with IGROV-1 it was 12.7 µM (inactive); in the test on K562, 27.4 µM (inactive); in the test with LOX IMVI, 20.5 µM (inactive); with MDA-MB-231, 17.6 µM (inactive); in the test with NCI-H522 it was 24.8 µM (inactive). Besides, the GI50 in the test with OVCAR-4 is 34.3 µM (inactive); with PC-3 it was 30.8 µM (inactive); in the test on RPMI-8226, 0.165 µM (active); with SK-OV-3, > 100 µM (inactive); in the test on SW-620, 48.2 µM (inactive); with UACC-257, 33.9 µM (inactive).
Consider `O=C(OC1CN2CCC1CC2)N(c1ccccc1)c1ccccc1` (stereo not drawn), for which the GI50 is 24.7 µM (inactive) with A498; > 100 µM (inactive) with BT-549; 43.1 µM (inactive) in the test with COLO 205; > 100 µM (inactive) in the test on EKVX; 47.4 µM (inactive) in the test with HCT-116; 34.7 µM (inactive) in the test on HOP-92. In addition, the GI50 in the test with HT-29 was 44.9 µM (inactive); in the test on IGROV-1, > 100 µM (inactive); in the test on K562, 24.9 µM (inactive); in the test with LOX IMVI it was 38.5 µM (inactive); in the test with MDA-MB-231, 54 µM (inactive); in the test on NCI-H522, > 100 µM (inactive). The GI50 is > 100 µM (inactive) with OVCAR-4; 69.2 µM (inactive) in the test with PC-3; > 100 µM (inactive) with RPMI-8226; > 100 µM (inactive) in the test on SK-OV-3; 62.5 µM (inactive) with UACC-257.
For `CC(C)(C)c1cc(-c2ccc(-c3cc(C(C)(C)C)c(O)c(C(C)(C)C)c3)cc2)cc(C(C)(C)C)c1O`, the GI50 with A498, in the test with BT-549, with COLO 205, in the test on EKVX, in the test on HCT-116 and in the test with HOP-92 was > 100 µM (inactive) throughout. The GI50 in the test with HT-29, in the test on IGROV-1, with K562, in the test with LOX IMVI, in the test on MDA-MB-231 and in the test with NCI-H522 was > 100 µM (inactive) in each case. For the same compound, the GI50 in the test on OVCAR-4, in the test on PC-3, with RPMI-8226, in the test with SK-OV-3, in the test on SW-620 and with UACC-257 was > 100 µM (inactive) each time.
Regarding `Cc1ccc(NC(=S)NNC(=O)c2cc(-c3ccccc3)nc3ccccc23)cc1`, the GI50 with BT-549 was 15.7 µM (inactive); in the test on COLO 205 it was 16 µM (inactive); with HCC 2998 it was 10.8 µM (inactive); with HCT-116, 8.59 µM (inactive); with HOP-92, 11.8 µM (inactive); in the test on HT-29, 24 µM (inactive). In addition, the GI50 in the test on IGROV-1 is 15.2 µM (inactive); in the test with K562, 13.4 µM (inactive); with MDA-MB-231, 18.5 µM (inactive); with NCI-H522, 14.7 µM (inactive); in the test with OVCAR-4 it was 17.9 µM (inactive); with PC-3 it was 12 µM (inactive). Besides, the GI50 in the test with RPMI-8226 is 4.59 µM (inactive); in the test with SK-OV-3 it was 16.5 µM (inactive); with SW-620 it was 10.4 µM (inactive); in the test with UACC-257, 14.4 µM (inactive).
`CCOC(=O)NC(Nc1ccc(S(=O)(=O)Nc2ncccn2)cc1)(C(=O)OCC)C(F)(F)F` (stereo not drawn): the GI50 in the test on BT-549, in the test with COLO 205, in the test on EKVX, with HCC 2998, in the test on HCT-116 and with HOP-92 was > 100 µM (inactive) throughout. The GI50 with HT-29, with IGROV-1, with K562, in the test with LOX IMVI, with MDA-MB-231 and in the test with NCI-H522 was > 100 µM (inactive) each time. Also, the GI50 with OVCAR-4, in the test on PC-3, with RPMI-8226, with SK-OV-3, in the test with SW-620 and in the test on UACC-257 was > 100 µM (inactive) throughout.
In the case of `CCOC(=O)C1=C(C)NC(=O)NC1c1ccc(N(CCCl)CCCl)cc1Cl` (stereo not drawn), the GI50 is 15.9 µM (inactive) in the test on A498; 15.5 µM (inactive) with BT-549; 18.6 µM (inactive) in the test with COLO 205; 22.5 µM (inactive) with EKVX; 14.3 µM (inactive) in the test with HCT-116; 13 µM (inactive) in the test with HOP-92. Further, the GI50 in the test with HT-29 was 16 µM (inactive); in the test with IGROV-1, 15.1 µM (inactive); with K562 it was 12 µM (inactive); with LOX IMVI, 15.9 µM (inactive); in the test with MDA-MB-231, 13.6 µM (inactive); with NCI-H522 it was 13.6 µM (inactive). Moreover, the GI50 is 17.2 µM (inactive) with OVCAR-4; 15.2 µM (inactive) with PC-3; 17.3 µM (inactive) with SK-OV-3; 17.9 µM (inactive) with SW-620; 16 µM (inactive) with UACC-257.
`COC(=O)CCC(C)C1CCC2C3C(C[C@H](OC(C)=O)[C@]12C)[C@@]1(C)CCC2(C[C@H]1C[C@H]3OC(C)=O)OOC1(CC[C@]3(C)C4C[C@H](OC(C)=O)[C@]5(C)C(C(C)CCC(=O)OC)CCC5C4[C@H](OC(C)=O)C[C@@H]3C1)OO2` (stereo partly drawn): the GI50 in the test on BT-549 was 97.3 µM (inactive); in the test on COLO 205 it was > 100 µM (inactive); in the test with EKVX it was > 100 µM (inactive); in the test with HCC 2998, > 100 µM (inactive); in the test with HCT-116, > 100 µM (inactive); in the test with HT-29, > 100 µM (inactive). Also, the GI50 in the test on IGROV-1, in the test on K562, in the test on LOX IMVI, with MDA-MB-231, in the test with NCI-H522 and with OVCAR-4 was > 100 µM (inactive) throughout. For the same compound, the GI50 in the test on PC-3, with RPMI-8226, with SK-OV-3, in the test on SW-620 and in the test with UACC-257 was > 100 µM (inactive) throughout.
In the case of `O=C(c1ccc([N+](=O)[O-])cc1)C(Br)C(Br)c1ccnc2ccccc12` (stereo not drawn), the GI50 was 3.99 µM (inactive) in the test on A498; 7.59 µM (inactive) in the test on BT-549; 13 µM (inactive) in the test on COLO 205; 8.79 µM (inactive) in the test on EKVX; 1.92 µM (inactive) in the test on HCT-116; 13.8 µM (inactive) in the test with HOP-92. The GI50 in the test with HT-29 is 2.9 µM (inactive); with IGROV-1 it was 13.7 µM (inactive); with K562, 2.83 µM (inactive); in the test on LOX IMVI, 2.11 µM (inactive); in the test with MDA-MB-231, 13.1 µM (inactive); in the test with NCI-H522, 1.86 µM (inactive). The GI50 in the test with OVCAR-4 is 11.7 µM (inactive); in the test with PC-3, 7.29 µM (inactive); in the test on RPMI-8226, 2.23 µM (inactive); in the test on SK-OV-3, 17.8 µM (inactive); in the test with SW-620 it was 2.09 µM (inactive); in the test with UACC-257, 2.18 µM (inactive).
